From ChEMBL document CHEMBL1157653, “Gentisides A and B, two new neuritogenic compounds from the traditional Chinese medicine Gentiana rigescens Franch” (Bioorg Med Chem, 2010)
The source made the active and inactive calls. The calls are words filed in the database; no cut-off is given here.

How the values were obtained:
PC-12 [1] = assay: Induction of neuritogenic activity in rat PC12 cells assessed as long neurite outgrowths at 1 to 30 uM after 48 hrs; type: functional, cell-based
PC-12 [2] = assay: Induction of neuritogenic activity in rat PC12 cells assessed as long neurite outgrowths after 48 hrs; type: functional, cell-based
PC-12 [3] = assay: Cytotoxicity against rat PC12 cells at 1 to 30 uM after 48 hrs; type: cell-based; conditions: pc-12, 48 h
PC-12 [4] = assay: Induction of neuritogenic activity in rat PC12 cells assessed as long neurite outgrowths at 30 uM after 48 hrs; type: functional
PC-12 [5] = assay: Cytotoxicity against rat PC12 cells at 100 uM after 48 hrs; type: cell-based; conditions: pc-12, 48 h
PC-12 [6] = assay: Induction of neuritogenic activity in rat PC12 cells assessed as long neurite outgrowths at 100 uM after 48 hrs; type: functional, cell-based
PC-12 [7] = assay: Potentiation of NGF-induced neuritogenic activity in rat PC12 cells assessed as neurite outgrowths at 1 to 30 uM after 48 hrs; type: functional, cell-based
PC-12 [8] = assay: Induction of neuritogenic activity in rat PC12 cells assessed as appearance of long multipolar and bipolar neurite outgrowths at 30 uM after 48 hrs by phase contrast microscopy; type: functional, cell-based

Row | SMILES | Activity (PC-12 [1]) | Activity (PC-12 [2]) | Activity (PC-12 [3]) | Activity (PC-12 [4]) | Activity (PC-12 [5]) | Activity (PC-12 [6]) | Activity (PC-12 [7]) | Activity (PC-12 [8])
1 | O=C(O)c1cccc(O)c1O | inactive | – | – | – | – | – | – | –
2 | CC(C)CCCCCCCCCCCCCCCCCCCOC(=O)c1cccc(O)c1O [GENTISIDE A] | – | Dose-dependent effect | Non-toxic | 82% | Toxic | Active | inactive | Active
3 | CC[C@H](C)CCCCCCCCCCCCCCCCCCCOC(=O)c1cccc(O)c1O [GENTISIDE B] | – | Dose-dependent effect | Non-toxic | 87% | Toxic | Active | inactive | Active
